Data on eight molecules can be found in patent US20110020460A1, “GPR 119 MODULATORS” (Pfizer Inc., priority 2009, published 2011).

The structures appear in SMILES notation. pEC50, pKi: −log10 of the molar value. Where “and” joins values, the source holds several entries; their conditions need not be identical. Equal entries are not always repeated.

In general, pEC50 refers to the negative decadic logarithm of the EC50, by convention in mol/L. By pKi is commonly meant the Ki on a negative log10 scale, so that one unit is a factor of ten.

For assay [1], the target named is T1, human GPR119 (Homo sapiens, UniProt Q8TDV5).
T1 construct: host or cells: HEK293-CRE-beta-lactamase
T1 sequence (Q8TDV5 1-335): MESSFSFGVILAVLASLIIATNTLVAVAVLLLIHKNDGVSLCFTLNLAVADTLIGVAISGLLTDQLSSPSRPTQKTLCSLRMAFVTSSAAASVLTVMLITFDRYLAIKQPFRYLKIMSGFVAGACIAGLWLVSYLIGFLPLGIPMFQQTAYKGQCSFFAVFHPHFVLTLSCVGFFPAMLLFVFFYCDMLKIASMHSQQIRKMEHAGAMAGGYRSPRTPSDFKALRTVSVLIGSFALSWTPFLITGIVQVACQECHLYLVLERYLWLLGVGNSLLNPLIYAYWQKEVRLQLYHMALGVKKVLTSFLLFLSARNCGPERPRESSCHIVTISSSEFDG
Briefly: beta-lactamase reporter functional assay (hGPR119 HEK293-CRE beta-lactamase cells). Type of assay: cell-based. The following applies: for pEC50: read-out: Human B-lactamase Functional EC50; for Emax: read-out: Intrinsic Activity* (B-lactamase). As to the method: The assay for GPR119 agonists utilizes a cell-based (hGPR119 HEK293-CRE beta-lactamase) reporter construct where agonist activation of human GPR119 is coupled to beta-lactamase production via a cyclic AMP response element (CRE). GPR119 activity is then measured utilizing a FRET-enabled beta-lactamase substrate, CCF4-AM (Live Blazer FRET-B/G Loading kit, Invitrogen cat #K1027). […] After 4 hours the plating medium was removed and replaced with 40 microL of assay medium (Assay medium is plating medium without potassium clavulanate and HIFBS). Varying concentrations of each compound to be tested was then added in a volume of 10 microL (final DMSO≦0.5%) and the cells were incubated for 16 hours at 37 degrees Celsius in a humidified environment containing 5% carbon dioxide. Plates were removed from the incubator and allowed to equilibrate to room temperature for approximately 15 minutes. 10 microL of 6×CCF4/AM working dye solution (prepared according to instructions in the Live Blazer FRET-B/G Loading kit, Invitrogen cat #K1027) was added per well and incubated at room temperature for 2 hours in the dark. Fluorescence was measured on an EnVision fluorimetric plate reader, excitation 405 nm, emission 460 nm/535 nm. EC50 determinations were made from agonist-response curves analyzed with a curve fitting program using a 4-parameter logistic dose-response equation.

The target in assay [2] is T1, human GPR119. As to the kind of experiment: cAMP HTRF functional assay (hGPR119 HEK-CRE beta-lactamase cells). Type of assay: cell-based. The following applies: for Emax: read-out: Intrinsic Activity* (cAMP). As to the method: GPR119 agonist activity was also determined with a cell-based assay utilizing an HTRF (Homogeneous Time-Resolved Fluorescence) cAMP detection kit (cAMP dynamic 2 Assay Kit; Cis Bio cat #62AM4PEC) that measures cAMP levels in the cell. The method is a competitive immunoassay between native cAMP produced by the cells and the cAMP labeled with the dye d2. The tracer binding is visualized by a Mab anti-cAMP labeled with Cryptate. The specific signal (i.e. energy transfer) is inversely proportional to the concentration of cAMP in either standard or sample.
Following 30 minutes incubation at room temperature, 5 microL of labeled d2 cAMP and 5 microL of anti-cAMP antibody (both diluted 1:20 in cell lysis buffer; as described in the manufacturers assay protocol) were added to each well of the assay plate. […] Raw data were converted to nM cAMP by interpolation from a cAMP standard curve (as described in the manufacturer's assay protocol) and EC50 determinations were made from an agonist-response curves analyzed with a curve fitting program using a 4-parameter logistic dose response equation.

The target of assay [3] is T1, human GPR119. As to the kind of experiment: GPR119 radioligand binding assay ([3H]-Compound A or [3H]-Compound B, HEK 293FT membranes). The following applies: Ki from IC50 by Cheng-Prusoff; one value per run; read-out: Human Binding Ki. As to the method: Cells were harvested via centrifugation (3,000×g, 10 minutes), washed once on DPBS (minus Ca++/Mg++), resuspended in 0.25M sucrose, 25 mM HEPES, 0.5 mM EDTA, pH 7.4 and frozen at −80 degrees Celsius.
The frozen cells were thawed on ice and centrifuged at 700×g (1400 rpm) for 10 minutes at 4 degrees Celsius. The cell pellet was resuspended in 20 mL phosphate-buffered saline, and centrifuged at 1400 rpm for 10 minutes. […] Cells were then lysed with 15 gentle strokes of a tight-fitting glass Dounce homogenizer. The homogenate was centrifuged at 1000×g (2200 rpm) for 10 minutes at 4 degrees Celsius. The supernatant was transferred into fresh centrifuge tubes on ice. The cell pellet was resuspended in homogenization buffer, and centrifuged again at 1000×g (2200 rpm) for 10 minutes at 4 degrees Celsius after which the supernatant was removed and the pellet resuspended in homogenization buffer. […] The solution was then centrifuged at 25,000×g (15000 rpm) for 20 minutes at 4 degrees Celsius, the supernatant was discarded, and the pellet was resuspended in fresh homogenization buffer (minus Benzonase and MgCl2). After repeating the 25,000×g centrifugation step, the final membrane pellet was resuspended in homogenization buffer and frozen at −80 degrees Celsius.
2 microL of each dilution was added to appropriate wells of a 96-well plate (each concentration in triplicate).
Membranes expressing GPR119 were thawed and diluted to a final concentration of 20 μg/100 microL per well in Binding Buffer, and 100 microL of diluted membranes were added to each well of 96-well plate.
The plate was incubated for 60 minutes w/shaking at room temperature (approximately 25 degrees Celsius). […] Filters were then washed six times using washing buffer (50 mM Tris-HCl, pH 7.5 kept at 4 degrees Celsius). The filter plates were then air-dyed at room temperature overnight.
IC50 determinations were made from competition curves, analyzed with a proprietary curve fitting program (SIGHTS) and a 4-parameter logistic dose response equation. Ki values were calculated from IC50 values, using the Cheng-Prusoff equation.

[4] abbreviates: **curve was extrapolated to 100% to calculate an EC50.
Setting [5] is: hGPR119 HEK293-CRE beta-lactamase cells, one value per run.
[6] abbreviates: percent of maximal activity relative to standard GPR119 agonist (WO2005121121) at 10 microM, one value per run.
Setting [7] is: hGPR119 HEK-CRE beta-lactamase cells, HTRF cAMP, one value per run.
The mark [8] stands for this setting: percent of maximal activity relative to standard GPR119 agonist (WO2005121121) at 10 μM, one value per run.

`CC(C)OC(=O)N1CCC(n2ncc(COc3ccc(-c4nnnn4C)cc3F)c2C#N)CC1` [Example 20, Isopropyl 4-(5-cyano-4-((2-fluoro-4-(1-methyl-1H-tetrazol-5-yl)phenoxy)methyl)-1H-pyrazol-1-yl)piperidine-1-carboxylate]: the pEC50 in assay [1] (setting [4]) is 6.88; in assay [1] (setting [5]), 7.21; in assay [2] (setting [7]) it was 7.23 and 7.05. Moreover, the figures for the Emax in assay [1] (setting [4]), in assay [1] (setting [6]) and in assay [2] (setting [8]) were 100%, 107% and 123%, respectively. In addition, the pKi in assay [3] is 7.39 and 6.84.

As to `Cc1nc(-n2cncn2)ccc1OCc1cnn(C2CCN(C(=O)OC(C)C)CC2)c1C#N` [Example 35, Isopropyl 4-[5-cyano-4-({[2-methyl-6-(1H-1,2,4-triazol-1-yl)pyridin-3-yl]oxy}methyl)-1H-pyrazol-1-yl]piperidine-1-carboxylate], the pEC50 in assay [1] (setting [5]) is 7.12 and 6.90. Besides, in assay [1] (setting [6]), the “Intrinsic Activity* (B-lactamase)” value was determined as 101% and the Emax amounted to 83%. Moreover, the negative-log EC50 (pEC50) in assay [2] (setting [7]) is 7.74 and 7.51. In assay [2] (setting [8]), the “Intrinsic Activity* (cAMP)” value is 66% and the Emax stood at 76%. The pKi in assay [3] is 7.51 and 7.54.

Regarding `CC(C)OC(=O)N1CCC(n2ncc(CNc3ccc(S(C)(=O)=O)cc3F)c2C#N)CC1` [Example 10, Isopropyl 4-[5-cyano-4-({[2-fluoro-4-(methylsulfonyl)phenyl]amino}methyl)-1H-pyrazol-1-yl]piperidine-1-carboxylate], the pEC50 in assay [1] (setting [5]) is 7.47 and 7.42. Besides, in assay [1] (setting [6]), the “Intrinsic Activity* (B-lactamase)” value is on record as 94% and the Emax is 100%. For the same molecule, in assay [2] (setting [7]), the pEC50 was 7.06 and 7.01. Moreover, in assay [2] (setting [8]), the “Intrinsic Activity* (cAMP)” value amounted to 57% and the Emax is 62%. Moreover, the pKi in assay [3] is 7.55 and 7.52.

In the case of `CC(C)OC(=O)N1CCC(n2ncc(COc3ccc(-n4cnnn4)cc3)c2C#N)CC1` [Example 4, Isopropyl 4-(5-cyano-4-{[4-(1H-tetrazol-1-yl)phenoxy]methyl}-1H-pyrazol-1-yl)piperidine-1-carboxylate], the pEC50 in assay [1] (setting [5]) was 7.82 and 7.80. In addition, in assay [1] (setting [6]), the “Intrinsic Activity* (B-lactamase)” value is 95% and the Emax stood at 97%. The pEC50 in assay [2] (setting [7]) was 8.00 and 8.05. Besides, in assay [2] (setting [8]), the “Intrinsic Activity* (cAMP)” value worked out at 60% and the Emax came out at 80%. The pKi in assay [3] is 8.30.

Take `CC(C)OC(=O)N1CCC(n2ncc(COc3ccc(-c4nnn[nH]4)cc3F)c2C#N)CC1` [Example 19, Isopropyl 4-(5-cyano-4-((2-fluoro-4-(1H-tetrazol-5-yl)phenoxy)methyl)-1H-pyrazol-1-yl)piperidine-1-carboxylate and Isopropyl 4-(5-cyano-4-((2-fluoro-4-(2H-tetrazol-5-yl)phenoxy)methyl)-1H-pyrazol-1-yl)piperidine-1-carboxylate]: the pEC50 in assay [1] (setting [4]) was 5.40 and 5.32; in assay [2] (setting [4]), 5.35; in assay [2] (setting [7]), 5.34. The Emax was 100% in assay [1] (setting [4]), 100% in assay [2] (setting [4]) and 99% in assay [2] (setting [8]). In addition, in assay [3], the pKi is < 5.21.

With `CC(C)OC(=O)N1CCC(n2ncc(COc3ccc(S(C)(=O)=O)cc3F)c2C#N)CC1` [Example 2, Isopropyl 4-(5-cyano-4-{[2-fluoro-4-(methylsulfonyl)phenoxy]methyl}-1H-pyrazol-1-yl)piperidine-1-carboxylate], the pEC50 was 8.05 and 7.77 in assay [1] (setting [5]); 7.54 and 7.57 in assay [2] (setting [7]). In assay [1] (setting [6]), the “Intrinsic Activity* (B-lactamase)” value was 93% and 84%. The Emax was 100% in assay [1] (setting [6]) and 60% in assay [2] (setting [8]). In assay [2] (setting [8]), the “Intrinsic Activity* (cAMP)” value was found to be 63%. Moreover, the negative logarithm of the Ki (pKi) in assay [3] was 8.00 and 7.72 and 7.89 and 7.40.

With `Cc1ncccc1OCc1cnn(C2CCN(C(=O)OC3(C)CC3)CC2)c1C#N` [Example 30, 1-Methylcyclopropyl 4-(5-cyano-4-{[(2-methylpyridin-3-yl)oxy]methyl}-1H-pyrazol-1-yl)piperidine-1-carboxylate], the pEC50 was 6.87 and 6.78 in assay [1] (setting [5]); 6.59 and 6.61 in assay [2] (setting [7]). In assay [1] (setting [6]), the “Intrinsic Activity* (B-lactamase)” value was 113% and 76%. Moreover, the “Intrinsic Activity* (cAMP)” value in assay [2] (setting [8]) is 60%. In addition, the Emax in assay [2] (setting [8]) is 68%. In addition, the pKi in assay [3] is 5.69.

As for `CC(C)OC(=O)N1CCC(n2ncc(COc3ccc(S(=O)(=O)CCO)cc3F)c2C#N)CC1` [Example 1, Isopropyl 4-[5-cyano-4-({2-fluoro-4-[(2-hydroxyethyl)sulfonyl]-phenoxy}methyl)-1H-pyrazol-1-yl]piperidine-1-carboxylate], the pEC50 in assay [1] (setting [5]) is 7.17 and 6.91. For the same molecule, in assay [1] (setting [6]), the “Intrinsic Activity* (B-lactamase)” value was 101% and the Emax was 100%. Besides, the pEC50 in assay [2] (setting [7]) is 6.66 and 6.74. For the same molecule, in assay [2] (setting [8]), the “Intrinsic Activity* (cAMP)” value amounted to 37% and the Emax worked out at 56%. Besides, the pKi in assay [3] is 7.33 and 7.35.
